pEC50, pIC50: −log10 of the molar value. Where no end group is shown, it is not given here.
Assays:
[1] = system: Escherichia coli ATCC 25922; set-up: method as in Gunasekera et al., 2018; conditions: ref Gunasekera et al., 2018; cited from earlier work
[2] = system: Staphylococcus aureus ATCC 29213; set-up: method as in Gunasekera et al., 2018; conditions: ref Gunasekera et al., 2018; cited from earlier work
[3] = system: Candida albicans ATCC 90028; set-up: method as in Gunasekera et al., 2018; conditions: ref Gunasekera et al., 2018; cited from earlier work
[4] = system: Candida albicans ATCC 90028; conditions: ATCC 90028, 5 h
Description: (§1) The three bacterial strains: Escherichia coli ATCC 25922, Pseudomonas aeruginosa ATCC 27853 Staphylococcus aureus ATCC 29213 as well as the fungal strain Candida albicans ATCC 90028 derived from clinical wound infections were obtained from the Department of Clinical Bacteriology at Lund University Hospital.
(§2) Antimicrobial activities of the peptides were evaluated using the two-step microdilution assay ([Strömstedt et al., 2017]), which is designed for testing AMPs without activity-inhibiting components. Briefly, the microbial suspension was washed twice with 10 mM Tris buffer (set to pH 7.4 at 37°C). 96-well plates (U-shaped, untreated polystyrene) were prepared with peptide 2-fold serial dilutions in Tris buffer. The culture density was quantified by OD600, diluted in Tris buffer and 50,000 cells aliquoted to each well in the 96-well plate to a final 100 μl volume. After 5 h of aerobic incubation at 37°C, 5 μl of 20% TSB medium was added to each well (resulting in 1% TSB) and the plates were re-incubated. Growth-inhibition was monitored when controls produced pellet sizes of 2 mm in diameter (close to growth saturation), which equates to 5, 8, 10, and 12 h for E. coli, S. aureus, P. aeruginosa, and C. albicans, respectively. […] The MIC-values in Table 1, are medians from triplicate experiments, while the data presented in the Figure 2 are the same values relative to that of KR-12.

[5] = system: Escherichia coli ATCC 25922; conditions: ATCC 25922, 5 h
Description: as §1, §2

[6] = Liposome leakage assay, bacterial liposomes; set-up: species or system E. coli
Description: Membrane disruption was assayed by liposome leakage. […] E. coli and Saccharomyces cerevisiae membrane lipids were reconstituted into large unilamellar vesicles, trapping a self-quenching fluorescent marker.
Polar lipid extract from E. coli, and S. cerevisiae (Avanti Polar Lipids, Alabaster, AL-US) were used, the latter supplemented with ergosterol (Sigma-Aldrich) at a 7:3 molar ratio. In brief, dry lipid films were deposited on round-bottom flask walls and re-suspended in Tris buffer containing of 100 mM 5(6)-carboxyfluorescein. Multilamellar structures and polydispersity were reduced by repeated extrusion through 100-nm polycarbonate membranes. Un-trapped carboxyfluorescein was removed by gel separation. Membrane permeability was measured by monitoring carboxyfluorescein efflux from the liposomes to the external low concentration environment, resulting in loss of self-quenching and an increased fluorescence signal. The leakage experiments were performed on a 96-well plate format. […] EC50-values are calculated from sigmoidal dose-response curves of leakage percentage as a function of the peptide concentration (log10).

[7] = system: Human type A RBCs; experiment: Hemolysis assay; format: cell-based
Description: Peptides were dissolved in water and serially diluted in PBS to give 20 μl test solutions in a 96-well U-bottomed microtiter plate (Nunc). Human type A RBCs (red blood cells) were washed with PBS and centrifuged at 1500 g for 60 s in a microcentrifuge several times until a clear supernatant was obtained. A 0.25% suspension of washed RBCs in PBS (100 μl) was added to the peptide solutions. The plate was incubated at 37°C for 1 h and centrifuged at 150 g for 5 min. Aliquots of 100 μl were transferred to a 96-well flat-bottomed microtiter plate (Falcon) and the absorbance was measured at 405 nm with an automatic Multiskan Ascent plate reader (Labsystems). The amount of hemolysis was calculated as the percentage of maximum lysis (1% Triton X-100 control) after adjusting for minimum lysis (PBS control). Synthetic melittin (Sigma) was used for comparison. The hemolytic dose necessary to lyse 50% of the RBCs (HD50) was calculated using the regression constant from the linear portion of the hemolytic titration curve (GraphPad Prism software).

[8] = system: human lymphoma cell line U-937 GTB; conditions: cited from earlier work
[9] = system: Escherichia coli; set-up: method as in Wang, 2008; conditions: ref Wang, 2008; cited from earlier work
[10] = system: Pseudomonas aeruginosa ATCC 27853; set-up: method as in Gunasekera et al., 2018; conditions: ref Gunasekera et al., 2018; cited from earlier work
[11] = Liposome leakage assay, fungal liposomes; set-up: species or system S. cerevisiae; conditions: 50% leakage, 45 min incubation, 37°C; read-out: EC50 fung. (liposome leakage)
Description: FIGURE 3 Peptide induced liposome leakage. Bacterial liposomes based on E. coli polar lipid extract (A,B), and fungal liposomes of S. cerevisiae polar lipid extract and ergosterol (7:3) (C), were monitored for fluorescent marker leakage over 45 min of incubation with peptides. (A) Compares membrane disrupting efficacy at the 45 min mark for the parent peptide, monomer, lysine substitutions and dimerization, (B) effects of linker length, monomer directionality and backbone cyclization, (C) effect on KR-12 directionality and dimerization on a fungal liposome system. […] Results are means from triplicate experiments with standard deviations.
The liposome production and the liposome leakage assay were performed similar to what has previously been described ([Strömstedt et al., 2016]). […] Membrane permeability was measured by monitoring carboxyfluorescein efflux from the liposomes to the external low concentration environment, resulting in loss of self-quenching and an increased fluorescence signal. […] The effect of each peptide concentration on liposome integrity was monitored for 45 min, at which point the leakage had largely subsided. […] EC50-values are calculated from sigmoidal dose-response curves of leakage percentage as a function of the peptide concentration (log10).

## KRIVQRIKDFLR [KR-12]
[1]
  MIC against Escherichia coli: 2.5 µM
[2]
  MIC against Staphylococcus aureus: 10 µM
[3]
  MIC against Candida albicans: 10 µM
[4]
  MIC fung.: 10 µM
[5]
  MIC bact.: 2.5 µM
[6]; 50% leakage, 45 min incubation, 37°C, read-out: EC50 bact. (liposome leakage)
  pEC50: ~4.60
[6]; E. coli liposomes
  fold higher concentration than LL-37 required to reach 50% leakage: 38 fold
[7]
  HC50 (hemolysis): > 80 µM
[8]; at the maximum concentration of 80 μM, ref Gunasekera et al., 2018
  loss of cell viability: 13%
[8]
  pIC50: < 4.10
[9]
  MIC against Escherichia coli: 40 µM
[10]
  MIC against Pseudomonas aeruginosa: 10 µM
[11]
  pEC50: 6.02

Reference: publication PMC7046553, “Backbone Cyclization and Dimerization of LL-37-Derived Peptides Enhance Antimicrobial Activity and Proteolytic Stability” (Frontiers in Microbiology, 2020)
